Assay results as given in paper PMC3338766 (2012).

Legend:
[1] = test system: d(T2G8) (DNA, G4) GGGGTTGGGG; test: ESI-MS, relative binding affinity; conditions: 50 mM ammonium acetate; residual K+; 10 nM quadruplex and ligand, 10% methanol; intensity-derived index, not a constant
[2] = test system: d(T2G8) (DNA, G4) GGGGTTGGGG; test: UV-Vis titration (soret shift 424–434 nm, 38.2% hypochromicity); conditions: K+ (100 mM KCl, 30 mM potassium phosphate); 5 µM TMPyP4, 25 °C
[3] = test system: d(T2G8) (DNA, G4) GGGGTTGGGG; test: SYBR Green fluorescence melting; conditions: K+ (100 mM KCl, 30 mM potassium phosphate), 5 µM quadruplex, 1× SYBR Green, ligand concentration not stated
[4] = test system: d(T2G8) (DNA, G4) GGGGTTGGGG; test: ITC; conditions: K+ (100 mM KCl, 30 mM potassium phosphate); pH 7.0, 25 °C; two-sites model; site 1 of 2

| SMILES | IRa [1] | binding [2] | Tm ([3]; Tm 43 to 49 °C) | K1 [4] | Tm ([3]; Tm 43 to 36 °C, derived from two Tm) [°C] |
| --- | --- | --- | --- | --- | --- |
| C[n+]1ccc(-c2c3nc(c(-c4cc[n+](C)cc4)c4ccc([nH]4)c(-c4cc[n+](C)cc4)c4nc(c(-c5cc[n+](C)cc5)c5ccc2[nH]5)C=C4)C=C3)cc1 | 0.18 | yes | – | – | – |
| COc1cc2c(cc1OCCCCCOc1cc3c(cc1OC)C(=O)N1CCC[C@H]1C(=O)N3)N=C[C@@H]1CCCN1C2=O | 0.67 | – | ~ 6 °C | 0.0875 (±0.03) × 10^8 | – |
| COc1cc2c(cc1OCCCC(=O)Nc1ccc3ccc4cccc5ccc1c3c45)N=C[C@@H]1CCCN1C2=O | 0.45 | – | – | 0.0597 (±0.01) × 10^8 | -7 |
